Measurements published in the supplement of paper PMC10307832.

Tests used:
Experiment in all cases: relative viability (nuclei count vs DMSO), 5 days (fraction); higher = more cells survive
Tanzisertib + OSI-027 = compound: O[C@H]1CC[C@H](Nc2ncc3nc(Nc4c(F)cc(F)cc4F)n([C@H]4CCOC4)c3n2)CC1 [Tanzisertib] + COc1cccc2cc(-c3nc([C@H]4CC[C@H](C(=O)O)CC4)n4ncnc(N)c34)[nH]c12 [OSI-027] (partner 0.5 µM)
Procedure, shortened: (§1)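 Relative viability divides the nuclei count in treated wells by that in vehicle wells. Lung cancer cell lines were seeded in 1536-well plates, dosed by pin tool the next day, and fixed and stained after 5 days in one step with final 0.05% Triton X-100, 1% formaldehyde and 1 ug/ml Hoechst. Dosing was a single drug or a fixed anchor-drug dose plus five library-drug doses (not always all listed) in √10 steps, and values are medians of duplicate plates imaged at 4×.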

[1] = compound: C[C@@H](N)c1ccc(C(=O)Nc2ccnc3[nH]ccc23)cc1 + COc1cc2c(Oc3ccc(NC(=O)C4(C(=O)Nc5ccc(F)cc5)CC4)cc3F)ccnc2cc1OCCCN1CCOCC1 [Foretinib] (partner 0.25 µM)
Procedure, shortened: as §1

[2] = compound: C1CNCCC1C2=CC(=NN2)C3=CC=NC=C3 + Nc1nc2[nH]cc(CCc3ccc(C(=O)N[C@@H](CCC(=O)O)C(=O)O)cc3)c2c(=O)[nH]1 [Pemetrexed] (partner 0.2 µM)
Procedure, shortened: as §1

[3] = compound: C1CNCCC1C2=CC(=NN2)C3=CC=NC=C3 + CCNC(=O)c1noc(-c2cc(C(C)C)c(O)cc2O)c1-c1ccc(CN2CCOCC2)cc1 [Luminespib] (partner 0.01 µM)
Procedure, shortened: as §1

| Cell Line | relative viability (Tanzisertib + OSI-027; first compound 0.08 µM) | relative viability (Tanzisertib + OSI-027; first compound 0.253 µM) | relative viability (Tanzisertib + OSI-027; first compound 0.8 µM) | relative viability (Tanzisertib + OSI-027; first compound 2.53 µM) | relative viability (Tanzisertib + OSI-027; first compound 8 µM) | relative viability ([1]; first compound 0.04 µM) | relative viability ([1]; first compound 0.1265 µM) | relative viability ([1]; first compound 0.4 µM) | relative viability ([1]; first compound 1.265 µM) | relative viability ([1]; first compound 4 µM) | relative viability ([2]; first compound 0.08 µM) | relative viability ([2]; first compound 0.8 µM) | relative viability ([2]; first compound 2.53 µM) | relative viability ([2]; first compound 8 µM) | relative viability ([3]; first compound 0.08 µM) | relative viability ([3]; first compound 0.8 µM) | relative viability ([3]; first compound 2.53 µM) | relative viability ([3]; first compound 8 µM) |
| --- | --- | --- | --- | --- | --- | --- | --- | --- | --- | --- | --- | --- | --- | --- | --- | --- | --- | --- |
| NCI-H2405 | 0.7 | 0.596 | 0.682 | 0.703 | 0.532 | 1.12 | 1.09 | 1.13 | 0.838 | 0.519 | 1.05 | 1.1 | 1.11 | 1 | 0.616 | 0.584 | 0.875 | 0.544 |
| NCI-H2023 | 0.483 | 0.418 | 0.394 | 0.347 | 0.35 | 0.965 | 1.14 | 1.4 | 0.988 | 0.766 | 0.206 | 0.222 | 0.224 | 0.241 | 0.709 | 0.878 | 0.867 | 0.832 |
| NCI-H838 | 0.401 | 0.426 | 0.453 | 0.418 | 0.4 | 0.965 | 0.957 | 0.919 | 0.634 | 0.409 | 0.24 | 0.259 | 0.248 | 0.284 | 0.315 | 0.355 | 0.281 | 0.302 |
| NCI-H1563 | 0.789 | 0.731 | 0.722 | 0.731 | 0.704 | 0.974 | 0.986 | 0.876 | 0.923 | 0.914 | 0.818 | 0.662 | 0.961 | 0.904 | 0.536 | 0.497 | 0.518 | 0.494 |
| NCI-H661 | 0.771 | 0.741 | 0.615 | 0.704 | 0.655 | 0.947 | 1.09 | 1.03 | 0.923 | 0.855 | 0.967 | 0.942 | 0.939 | 0.891 | 0.93 | 0.915 | 0.934 | 0.848 |
| NCI-H1734 | 0.758 | 0.581 | 0.588 | 0.723 | 0.586 | 0.996 | 0.95 | 0.867 | 0.855 | 0.683 | 0.407 | 0.431 | 0.426 | 0.433 | 0.183 | 0.201 | 0.195 | 0.219 |
| NCI-H1650 | 0.644 | 0.876 | 0.735 | 0.539 | 0.52 | 1.14 | 1.03 | 1.41 | 1.18 | 0.862 | 0.374 | 0.422 | 0.331 | 0.381 | 0.246 | 0.209 | 0.201 | 0.223 |
| NCI-H596 | 0.779 | 0.666 | 0.766 | 0.63 | 0.555 | 1.07 | 0.82 | 0.772 |  | 0.761 | 0.483 | 0.476 | 0.525 | 0.478 | 0.967 | 1.07 | 1.11 | 1.16 |
| NCI-H1944 | 0.4 | 0.393 | 0.426 | 0.389 | 0.338 | 0.98 | 0.975 | 0.985 | 0.822 | 0.557 | 0.564 | 0.595 | 0.67 | 0.557 | 0.665 | 0.691 | 0.81 | 0.693 |
| LK-2 | 0.26 | 0.209 | 0.193 | 0.16 | 0.186 | 1.32 |  | 1.49 |  | 1.46 |  | 0.263 | 0.295 | 0.267 | 0.176 | 0.19 | 0.214 | 0.226 |
| HCC-15 | 0.834 | 0.652 | 0.735 | 0.606 | 0.327 | 1.21 | 1.03 | 0.966 |  | 0.975 | 0.221 | 0.229 | 0.234 | 0.211 | 0.324 | 0.347 | 0.345 | 0.205 |
| HOP-62 | 0.845 | 0.868 | 0.76 | 0.833 | 0.848 | 1.09 | 1.05 | 1.03 | 1.16 | 0.982 | 0.312 | 0.336 | 0.272 | 0.335 | 0.999 | 1.06 | 0.837 | 0.847 |
| NCI-H3122 | 1.26 | 0.869 | 0.939 | 0.955 | 0.946 | 0.943 | 1.03 | 0.952 | 0.98 | 0.897 | 0.193 | 0.212 | 0.197 | 0.202 | 0.109 | 0.114 | 0.1 | 0.104 |
| NCI-H1395 | 0.697 | 0.714 | 0.622 | 0.692 | 0.518 | 1.07 | 1.14 | 1.06 | 0.995 | 0.909 | 0.782 | 0.803 | 1.03 | 0.861 | 0.771 | 0.692 | 0.563 | 0.764 |
| NCI-H647 | 0.694 | 0.644 | 0.569 | 0.63 | 0.69 | 1.22 | 1.06 | 1.25 | 1.21 | 0.895 | 0.176 | 0.146 | 0.174 | 0.189 | 0.151 | 0.21 | 0.157 | 0.101 |
| NCI-H650 | 0.517 | 0.661 | 0.508 | 0.624 | 0.441 |  | 0.991 | 1.03 | 0.899 | 0.712 | 0.956 | 0.967 | 0.951 | 1.02 | 0.65 | 0.705 | 0.958 | 0.744 |
| EKVX | 0.872 | 0.749 | 0.613 | 0.612 | 0.598 | 0.84 | 0.674 | 0.888 | 0.208 | 0.727 | 0.423 |  | 0.427 | 0.404 | 0.855 | 0.609 | 0.987 | 0.8 |
| NCI-H460 | 0.664 | 0.683 | 0.549 | 0.624 | 0.502 | 0.984 | 1.01 | 1 | 0.986 | 1 | 0.0816 | 0.066 | 0.0652 | 0.0683 | 0.0398 | 0.0336 | 0.0427 | 0.0305 |
